The values below come from patent publication US20240238417A1, “METHODS OF PRODUCING TUMOR VACCINES AND USES THEREOF” (priority 2021, published 2024).

One series relates to CT26 tumor. Briefly: Local gNO treatment of CT26 tumor bearing mice, primary tumor. The series is classed as in vivo. As for the experimental part:
Mice: All in vivo experimental procedures were carried out in accordance with the protocol approved by the Ethics Committee on the Use and Care of Animals. Institutional Animal Care and Use Committee (IACUC): 67-09-2019 and IL-20-3-149. The in vivo assays were performed on Balb/c or C57BU6J mice: 7-10 weeks of age, obtained from Envigo (Ness-Ziona, Israel), unless otherwise indicated.
Inoculation of tumor cells: Cancer cell suspensions at a concentration of 2.5-10.0×10^6 cells/ml were inoculated to the right flank of mice at a dose volume of 0.1 ml. Administration was performed as soon as possible following cell suspension preparation and after manual shaking prior to inoculation. The cell suspension was then aspirated into a 1-ml syringe with a 27G needle for subcutaneous (s.c.) injection.
Test article treatment: Mice were first anesthetized by an intraperitoneal (i.p) injection of 100 mg/kg ketamine and 20 mg/kg xylazine hydrochloride solution. After 10 minutes, tumor-bearing mice were treated with the indicated dose of gNO.
In all protocols, the gas was delivered from NO in N2 cylinders. The outlet pressure was set to 2-3.5 bar using a pressure regulator that was connected directly to the cylinder.
In protocols that involve administration by needle injection, a silicone hose was connected directly to the pressure regulator on one end and to a manual or digital MFC on the other end. The flow was adjusted to 0.05 LPM-0.25 LPM. An additional silicone hose was connected to the flow controller as well as to a 23G hypodermic needle. The needle was inserted horizontally into the center of each tumor.
Tumor volume calculation: Local tumor growth was determined by measuring 3 mutually orthogonal tumor dimensions 2-3 times per week, according to the following formula:
or Tumor volume=Diameter 1× Diameter 2^2/2, unless otherwise indicated. Diameter 1 represents length, Diameter 2 represents width and Diameter 3 represents height.
BALB/c female and male mice were obtained from Almog Diagnostic that purchased them from Envigo, Israel. The mice were 7-8 weeks of age. Animal care and experimentation were performed in accordance with the Bar-Ilan University guidelines.
CT-26, a colon carcinoma cell line was induced in a BALB/c mouse by chemical carcinogenesis.
Cells were cultured in Roswell Park Memorial Institute (RPMI) 1640 supplemented with 100 U/ml penicillin, 100 μg/ml streptomycin, 2 mM L-glutamine; 1 mM sodium pyruvate; 1% non-essential amino acid solution; 10% fetal calf serum. Cultures were maintained at 37° C. in a humidified incubator with a 5% CO2 atmosphere.
Mice were inoculated subcutaneously with 5×10^5 CT-26 cells suspended in 100 μL Hank's Balanced Salt Solution (HBSS) into the low lateral side of the back. Local tumor growth was determined by measuring two mutually orthogonal tumor diameters with a caliper. The volume of the tumor was calculated using the formula: Vol=D1×D2×D2/2, where D1, D2 are two mutually orthogonal tumor diameters.
Air-1 is a female Balb/c mouse that was treated twice. On day 0 the tumor volume was 64.85 mm^3.
NO-1 is a female Balb/c mouse and was treated once. […] Then, the skin was removed from the tumor, and the tumor was re-exposed to gNO via a perforated flask filled with gNO using the same parameters.
NO-2 is a male Balb/c mouse and was treated 3 times. On day 0 the tumor volume was 38.51 mm^3. Day 0—gNO at 50,000 ppm was administered for 3.8 minutes at a flow rate of 0.9 using a cap. Day 5: gNO at 10,000 ppm was administered for 30 minutes using a cap. Then, gNO was delivered intra-tumorally by a 23G needle such as shown in FIG. 11B at 0.3 LPM for another 10 minutes, using an intra-tumoral channel. The tip of the needle was directed at the outside area. Day 11: gNO at 10,000 ppm was delivered to the tumor for 5 minutes and at a flow rate of 0.3 LPM, using a 23G needle and an intra-tumoral channel.
In an additional set of experiments, aluminum disposable gas cylinders were used. […]

Another series has as its system CT26 challenge tumor. Briefly: gNO, tumor excision and CT26 re-challenge: tumor take and survival. In kind it is in vivo, mice. To be noted: about 75 days. The protocol:
CT26 tumor-bearing male mice were treated with 20,000 ppm and 50,000 ppm gNO intra-tumorally for 5 minutes. Fourteen days post gNO treatment, all tumors were excised. A week post surgery, all mice were re-challenged via a second inoculation of 5×10^5 CT26 cells, and tumor take and survival were monitored during about 75 days, as depicted in FIG. 21A.

The test system of the next series is CT-26 cells. As to the kind of experiment: XTT viability of CT-26 cells after direct gas exposure in 96-well plate. In kind it is cell-based. To be noted: Mus musculus, CT26; 50,000 ppm gNO for 10, 60, or 180 seconds; XTT after 24 hours. An excerpt:
Tumor celllines: The mouse colon carcinoma cell line, CT26WT, was cloned from CT26, an N-nitroso-N-methylurethane-induced, undifferentiated colon carcinoma cell line. The mouse mammary tumor cell line, 4T1, is a 6-thioguanine resistant cell line. When injected into BALB/c mice, 4T1 spontaneously produces highly metastatic tumors that can metastasize to the lung, liver, lymph nodes and brain while the primary tumor is growing in situ. […] Panc 02.03 is a pancreatic adenocarcinoma epithelial cell line derived in 1995 from a primary tumor removed from the head-of-the-pancreas of […] with pancreatic adenocarcinoma. CT26, 4T1 and Panc 02.03 cell lines were grown in RPMI based media (ATCC 30-2001) supplemented with fetal bovine serum and pen-strep (both from Biological Industries). The LLC1/LU2 cell line was grown in DMEM based media (ATCC 30-2002) supplemented with fetal bovine serum and pen-strep (Biological industries). The B16.F10 cell lines was grown in DMEM based media (ATCC 30-2002) supplemented with fetal bovine serum and pen-strep (Biologicalindustries).
In vitro systems: One system involves a direct exposure of cancer cells to gNO in 96-well plate. Gaseous NO at 150 ppm-50,000 ppm was delivered at 0.3 LPM for 10 seconds—3 minutes. In another system, cancer cells were exposed to gNO in a box made of acrylic glass. […]

Series [1] is described as follows: pH of cell suspension after ex-vivo gNO treatment of tumor cells. The following applies: ex-vivo treatment of tumor cells with gNO. The series is classed as physicochemical.

In the series with CT26 tumor (10,000 ppm gNO, 0.9 LPM, 20 minutes in flask, 1-17 days post treatment), `[N]=O` [gNO, nitric oxide] showed a CT-26 tumor destruction of 100%. The “tumor on photographs after treatment” value is recorded as “the tumor was destructed” in the series on CT26 tumor (10,000 ppm gNO, 0.9 LPM, 20 minutes in flask, 1 minute, 9 days and 14 days post treatment); “the tumor disappeared” in the series with CT26 tumor (200,000 ppm gNO for 2 seconds, 0.01 LPM, 9 days after treatment). In addition, in the series with CT26 tumor (25,000 ppm gNO intra-tumoral 15 minutes, 0.25 LPM, repeated a week later, 44 days post the first treatment), the cured mice is 50%. The “mice with CT-26 tumor growth inhibition compared to air treatment” value in the series on CT26 tumor (50,000 ppm intra-tumoral 2-3 minutes 0.2 LPM, then 10,000 ppm 6 minutes intra-tumoral and 4 minutes to outer layer) is listed as “⅔”. Also, the “size of air-treated tumor relative to gNO-treated tumors” value with CT26 tumor (CT26 tumors, 10,000-50,000 ppm gNO (mice NO-1, NO-2), 12 days post treatment 1) is “more than 30 times”. For the same compound, the challenge tumor development entry in the series on CT26 challenge tumor (20,000 ppm and 50,000 ppm gNO 5 minutes, excision day 14, re-challenge a week post surgery) is on record as “no tumor development”. Moreover, in the series on CT26 challenge tumor (50,000 ppm gNO 5 minutes, excision, re-challenge), the survival worked out at 100%. Also, in the series with CT-26 cells, the viability at 50000 ppm is about 1%. In addition, the “pH of cell suspension comprising gNO-treated tumor cells” value in series [1] is reported as “acidic pH”.
